A short description of assay [1]: Induction of Zebrafish Larva cartilage development assessed as increase in H2 phenotype ratio at 0.3 % measured after 5 days post fertilization by Alcian blue staining based assay. The following applies: time 5 day. The class given is functional, Danio rerio.
Assay [2] is filed under the species Danio rerio. The assay can be described thus: Induction of Zebrafish embryo skeletal development assessed as nuclear localization of p-Smad1 in head at 0.1 % measured at 24 to 72 hrs post fertilization by DAPI staining based analysis. The class given is functional, tissue-based. The following applies: time 24-72 hrs.
Assay [3] is described as follows: Induction of Zebrafish embryo skeletal development assessed as fatality rate measured at percentage concentration incubated after 72 hrs post fertilization by Alcian blue staining based assay. The class given is functional, Danio rerio.
Assay [4] can be described thus: Induction of Zebrafish embryo skeletal development assessed as ventralized embryos at 0.3 % measured at 24 hrs post fertilization relative to control. In kind it is functional, Danio rerio.
The species named for assay [5] is Danio rerio. Description: Suppression of Bmp signaling in Zebrafish embryos assessed as decrease in Bmp2b gene expression level at 0.1 % measured at 26 hrs post fertilization by semiquantitative PCR analysis. The class given is functional, tissue-based. As to conditions: Embryo.
For assay [6], the species on record is Danio rerio. The assay can be described thus: Anti-osteoporosis activity in FAC-induced skeletal injury Zebrafish larvae assessed as rescue of bone damage measured for 10 day post fertilization by Alizarin red staining based assay. The class given is functional, organism-based. As to conditions: Larva.
Assay [7] is filed under the species Danio rerio. Description: Induction of Zebrafish embryo skeletal development assessed as upregulation of col10a1a gene expression in branchiostegal at 0.01 to 0.3 % measured after 72 hrs post fertilization by […] analysis. In kind it is functional. The following applies: dose 0.01-0.3 %.

Calls of active or inactive are those of the source. The calls are words filed in the database; no cut-off is given here.

For the compound `Cl.N[C@@H]1[C@@H](O)[C@H](O)[C@@H](CO)O[C@H]1O`, the Activity is on record as 50% in assay [1] and 20% in assay [4]. The result in assay [2], in assay [5], in assay [6] and in assay [7] was Active. In assay [3], the IC50 came to 0.324%.

The record behind these values is ChEMBL document CHEMBL5149973, “Agaricus bisporus-Derived Glucosamine Hydrochloride Facilitates Skeletal Injury Repair through Bmp Signaling in Zebrafish Osteoporosis Model” (J Nat Prod, 2021).
